Series [1] can be described thus: crude tissue extract (kidney, 3 µg). Conditions: WT mice, up to 20 min.
Series [2] is described as follows: crude tissue extract (liver, 30 µg). As to conditions: WT mice, up to 20 min.
The test system of series [3] is THOP1. In words: THOP1 (0.1 ng), homogeneous recombinant enzyme.
In series [4] the test system is neurolysin (Nln). In words: Nln (0.1 ng), homogeneous recombinant enzyme.
Series [5] concerns C57BL/6N (WT) mice. In kind it is in vivo, mouse. The protocol:
In vivo experiments were conducted with male C57BL/6N (WT) mice 12–16 weeks-old (University of São Paulo Medical School Animal Facility, SP, Brazil). Mice were maintained in individual ventilated cages (Amresco, SP, Brazil), under standardized conditions with an artificial 12 h dark–light cycle, with free access to standard chow (Nuvital Nutrientes S.A., Colombo, PR, Brazil) and drinking water ad libitum. The number of animals used was the minimum necessary to obtain statistically significant results and they were maintained and used in accordance with the guidelines of the National Council for Control of Animal Experiments (CONCEA), following international norms of animal care and maintenance. Thus, we hereby state that all experimental protocols were previously approved by University of São Paulo Ethic committee councils from Biomedical Science Institute (approval number for mice experimentation ICB/USP 22/2017).
WT mice were fasted for 12 h and blood samples were taken before and at 15, 30, 60, 90, and 120 min after the intraperitoneal (ip) injection of 2 g/kg glucose. Glycemia was measured using a glucometer (Accu-Check Performa, ROCHE, São Paulo, Brazil). Peptides were evaluated to affect glucose uptake either after ip or oral (by gavage) administration. After 20 min glucose was administrated (blood glucose levels reached 400 mg/dL), animals received ip or oral administration of either saline, insulin (0.75 IU/kg), or peptide (Ric2 or Ric4; 600 µg/kg). In addition, a group of animals received oral administration of either water or Ric2 or Ric4 (600 µg/kg). Glycemia was measured as indicated following vehicle, insulin, or peptide administration.

Series [6] relates to differentiated C2C12 cells. In words: Glucose uptake in C2C12 myotubes. The format is cell-based, mouse. Conditions: peptides 100 µM, insulin 100 nM; 30 min, 37 °C; 3H-glucose (1 µCi/mL) or 2-NBDG (80 µM).
Series [7] can be described thus: in vitro. In kind it is in vitro ADME, mouse. Conditions: other tissue homogenate; mouse liver crude extract 30 µg; peptide 50 µM; 20 min; 250 µL TBS (0.025 M Tris-HCl, 0.125 M NaCl); RP-HPLC C18, UV 214 nm; average of three independent determinations; read-out: % of peptide degraded, Liver Extract (30 µg). As for the experimental part:
(§1) Peptide hydrolyses were analyzed by reverse phase liquid chromatography (HPLC) using a C18 µBond-pak column (4.6 × 250 mm; Millipore Corp.) with a linear gradient of 5–65% acetonitrile in 0.1% TFA for 20 min at a flow rate of 1 mL/min, and absorbance monitored at a wavelength of 214 nm, as previously described. Cleaved peptide bonds were identified by mass spectrometry sequencing after isolating the cleavage fragments manually after HPLC, as previously described (data not shown). Control enzyme assays were conducted using bradykinin ([…]; 50 µM) as a standard substrate.

A short description of series [8]: in vitro. Conditions: other tissue homogenate, mouse kidney crude extract 3 µg, peptide 50 µM, 250 µL TBS (0.025 M Tris-HCl, 0.125 M NaCl), RP-HPLC C18, UV 214 nm, average of three independent determinations, read-out: % of peptide degraded, Kidney Extract (3 µg). In kind it is in vitro ADME. As for the experimental part:
as §1
(IGF1) Rev: AGAGGTGTGAAGAC-
(GLUT4) Rev: CAGCTCCTATGGTGGCG-
Glyceraldehyde 3-phosphate de- TGCCAGCCTCGTCC 75 BC_085275 hydrogenase (GAPDH) Rev: CAGGCGCCCAATAC-
Figure S1. Typical experiments to evaluate the enzymatic stability of Ric4 and derivatives on kidney tissue extracts. In order to determine if the peptides investigated herein were substrates of tissue peptidases, 50 μM of each peptide was individually incubated for 20 min in the presence of increas-ing crude kidney tissue extracts (0 µg, 3 µg or 30 µg, as indicated), in a final volume of 250 μl of 0,025 M Tris-HCl, containing 0.125 M NaCl (TBS). Peptide hydrolyses were analyzed by reverse phase liquid chromatography (HPLC) using a C18 µBond-pak column (4.6 x 250 mm; Millipore Corp.) with a linear gradient of 5-65% acetonitrile in 0.1 % TFA for 20 min at a flow rate of 1 mL/min, (1 picture or pasted object on this page, not shown here)

The subject of series [9] is Nln. In kind it is in vitro ADME. The protocol: as §1
The target of series [10] is THOP1 (Rattus norvegicus, UniProt P24155). The format is in vitro ADME. The protocol: as §1
THOP1 (Rattus norvegicus, UniProt P24155), sequence (P24155 whole entry): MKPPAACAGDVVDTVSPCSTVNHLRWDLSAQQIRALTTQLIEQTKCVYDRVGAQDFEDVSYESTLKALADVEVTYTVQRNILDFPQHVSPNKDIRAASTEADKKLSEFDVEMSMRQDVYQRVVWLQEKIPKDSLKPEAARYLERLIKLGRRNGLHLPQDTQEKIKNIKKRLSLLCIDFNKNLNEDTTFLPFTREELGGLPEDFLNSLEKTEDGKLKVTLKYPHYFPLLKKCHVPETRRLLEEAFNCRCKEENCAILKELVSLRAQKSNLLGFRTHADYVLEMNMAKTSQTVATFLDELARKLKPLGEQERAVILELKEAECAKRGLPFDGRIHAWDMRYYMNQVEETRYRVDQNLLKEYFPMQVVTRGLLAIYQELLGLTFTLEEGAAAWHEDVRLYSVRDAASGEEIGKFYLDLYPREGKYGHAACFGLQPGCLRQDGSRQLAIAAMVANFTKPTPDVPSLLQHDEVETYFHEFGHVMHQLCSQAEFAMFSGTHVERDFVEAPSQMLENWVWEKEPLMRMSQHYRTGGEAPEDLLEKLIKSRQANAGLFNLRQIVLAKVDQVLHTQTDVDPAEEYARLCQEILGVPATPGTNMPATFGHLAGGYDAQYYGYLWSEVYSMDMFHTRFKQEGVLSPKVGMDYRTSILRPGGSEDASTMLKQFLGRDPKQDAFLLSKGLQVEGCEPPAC

Like-named read-outs stand apart in the source and are kept apart here. Square brackets hold non-standard residues; d marks the D form. Ends that are not written are not given here. Peptide text beside a SMILES is read from it.

For the compound LASVSTVLTSKYR, the cleaved bond entry in series [1] is on record as “Leu8-Thr9, first_seen”; in [2] it was “Leu8-Thr9, first_seen”. Moreover, the values for the not cleaved in [3] and in [4] were 2.22 % of peptide degraded and 4.69 % of peptide degraded, respectively.

For the compound “Ac-LASVSTV[dL]TSKYR-NH2 [Ric4-16, Ric4 derived peptide]”, in series [5] (mouse, in vivo, po), the oral bioavailability result is on record as “no oral bioavailability”. Further, the “glucose uptake in differentiated C2C12 cells” value in series [6] is recorded as “efficiently induced glucose uptake”.

As to `CC(=O)N[C@@H](CC(C)C)C(=O)N[C@@H](C)C(=O)N[C@@H](CO)C(=O)N[C@H](C(=O)N[C@@H](CO)C(=O)N[C@H](C(=O)N[C@H](C(=O)N[C@H](CC(C)C)C(=O)N[C@H](C(=O)N[C@@H](CO)C(=O)N[C@@H](CCCCN)C(=O)N[C@@H](Cc1ccc(O)cc1)C(=O)N[C@@H](CCCNC(=N)N)C(N)=O)[C@@H](C)O)C(C)C)[C@@H](C)O)C(C)C` [RIC4-16] (Ac-LASVSTV[dL]TSKYR-NH2), the metabolised at 20 min in series [7] turned out to be 26%; in series [8], 12.5%.

On to Ac-LASVSTVLTSKYR-NH2 [RIC4-2], for which the metabolised at 20 min in series [7] came to 70.2%; in series [8], 60%.

Take “Ac-LASVSTVLTSKYR-NH2 [Ric4-2, Ric4 derived peptide]”: in series [5] (WT mice fasted 12 h, glucose 2 g/kg ip at time zero, peptide 600 µg/kg orally by gavage), the “blood glucose levels in GTT, oral administration” value is “ability to reduce blood glucose levels”.

For the compound LASVSTVLTSKYR [RIC4], the metabolised at 20 min in series [7] worked out at 62.4%; in [8], 22.6%.

Consider Ac-LASVSTVLTSKYR-NH2, for which the not cleaved was 4.55 % of peptide degraded in series [3] and 1.18 % of peptide degraded in [4].

With RPPGFSPFR [Bradykinin], in [9], the “% of peptide degraded, Nln” value came out at 14.51%. Further, in [10], the “% of peptide degraded, THOP1” value is 11.93%.

The record behind these values is publication PMC8708875 (Pharmaceutics, 2021).
